From US11767316B2, “Non-fused thiophene derivatives and their uses” (ENYO PHARMA, priority 2018, dated 2023)
Read-outs that look alike come from different tables or passages of the source.

Test system: H1N1 (influenza A/New Caledonia/20/99)
Experiment: Antiviral effect on A549 cells infected with H1N1 (MUNANA neuraminidase readout)
Format: cell-based
Conditions: H1N1 A/New Caledonia/20/99 at MOI 0.1, 48 h post-infection, MUNANA fluorescence
Experimental: The antiviral effect of the compounds of the invention have been tested on A549 cell lines infected with H1N1 (influenza A/New Caledonia/20/99).
Human A549 cells (80,000 cells/well in a 96 well plate) were treated with a range of concentration of test compounds and immediately infected by H1N1 A/New Caledonia/20/99 virus (clinical isolate) at MOI of 0.1 in DMEM/1% Penicillin/streptomycin supplemented with 0.25 μg/ml TPCK trypsin (Sigma) and incubated at 37° C. in 5% CO2. 48 h post-infection, supernatants (25 μl) were collected and transferred into a 96-well black flat-bottom plate, mixed with 25 μl PBS with Ca++/Mg++(Thermo Fisher) and 50 μl of 2′-(4-Methylumbelliferyl)-α-D-N-acetylneuraminic acid sodium salt hydrate stock-solution (20 μM, MUNANA, Sigma). Plates were incubated 1 h at 37° C. and reaction is stopped by adding 100 μl of Stop Solution (glycine 0.1 M pH10.7/25% ethanol). The amount of fluorescent product released by MUNANA hydrolysis (4-MU) was measured in a Tecan spectrophotometer with excitation and emission wavelengths of 365 and 450 nm respectively.

[1] = Influenza A virus, H1N1, A549, 48 h
[2] = Influenza A virus, H1N1, A549, 48 h, read-out: IC50

SMILES	IC50 [2] [nM]	other results
O=C(Nc1scc(C2CCc3ccccc3C2)c1C(=O)O)c1ccc(OC2CCOCC2)cc1 (stereo not drawn) [#182]		IC50 [1]: 3 nM
O=C(Nc1scc(C2CCc3c(F)cccc3C2)c1C(=O)O)c1ccccc1 (stereo not drawn) [#190]	8	
O=C(Nc1scc(C2CCc3ccccc3C2)c1C(=O)O)c1ccc(F)cc1 (stereo not drawn) [#171]		IC50 (read-out: IC50): 6 nM
COCCCNc1ccc(C(=O)Nc2scc(C3CCc4ccccc4C3)c2C(=O)O)cc1 (stereo not drawn) [#64]	3.3	
O=C(Nc1scc(-c2ccc3c(c2)CCC3)c1C(=O)O)c1ccccc1 [#3]	280	
CN(CC1CCOCC1)c1ccc(C(=O)Nc2scc(C3CCc4ccccc4C3)c2C(=O)O)cc1 (stereo not drawn) [#132]	2	
O=C(Nc1scc(C2CCc3ccccc32)c1C(=O)O)c1ccc(N2CCOCC2)cc1 (stereo not drawn) [#56]	110	
O=C(Nc1scc(C2=Cc3ccccc3CC2)c1C(=O)O)c1ccccc1 [#185]	260	
O=C(Nc1scc(C2CCc3ccccc3C2)c1C(=O)O)c1ccc(N2CC3CC(C2)O3)cc1 (stereo not drawn) [#139]	15	
COCCCCNc1ccc(C(=O)Nc2scc(C3CCc4ccccc4C3)c2C(=O)O)cc1 (stereo not drawn) [#135]	3	
C[C@H]1COCCN1c1ccc(C(=O)Nc2scc(C3CCc4ccccc4C3)c2C(=O)O)cc1 (stereo partly drawn) [#146]	0.5	
O=C(Nc1scc(C2CCc3ccccc3C2)c1C(=O)O)c1ccccn1 (stereo not drawn) [#186]	134	
COc1cc(C(=O)Nc2scc(C3CCc4ccccc4C3)c2C(=O)O)ccc1NCC1CCOCC1 (stereo not drawn) [#127]	1.8	
COc1ccccc1C(=O)Nc1scc(C2CCc3ccccc3C2)c1C(=O)O (stereo not drawn) [#159]	100	
O=C(Nc1scc(-c2ccc3c(c2)CCCC3)c1C(=O)O)c1ccccc1 [#123]	133	
O=C(Nc1scc(C2CCc3ccccc3C2)c1C(=O)O)c1ccccc1 (stereo not drawn) [#157]		IC50 (read-out: IC50): 7 nM
C[C@@H]1CN(c2ccc(C(=O)Nc3scc(C4CCc5ccccc5C4)c3C(=O)O)cc2)CCO1 (stereo partly drawn) [#147]	8	
CS(=O)(=O)c1ccc(C(=O)Nc2scc(C3CCc4ccccc4C3)c2C(=O)O)cc1 (stereo not drawn) [#165]	900	
O=C(Nc1scc(C2CCc3ccccc3C2)c1C(=O)O)c1ccc(NCC2CCOCC2)cc1 (stereo not drawn) [#69]	3	
O=C(Nc1scc(C2CCc3ccccc3C2)c1C(=O)O)c1ccc(N2C3CCC2COC3)cc1 (stereo not drawn) [#144]	4	
CC(C)(C)Oc1ccc(C(=O)Nc2scc(C3CCc4ccccc4C3)c2C(=O)O)cc1 (stereo not drawn) [#188]	15	
COc1ccc(C(=O)Nc2scc(C3CCc4ccccc4C3)c2C(=O)O)cc1 (stereo not drawn) [#154]	2.7	
Cc1ccc(C(=O)Nc2scc(C3CCc4ccccc4C3)c2C(=O)O)cc1 (stereo not drawn) [#166]	39	
COc1ccc(C(=O)Nc2scc(C3CCc4ccccc4C3)c2C(=O)O)nc1 (stereo not drawn) [#187]	15	

SMILES	IC50 [2] [nM]	other results
O=C(Nc1scc(C2CCc3ccccc3C2)c1C(=O)O)c1ccc(N2CC3CCC(C2)O3)cc1 (stereo not drawn) [#142]	0.3	
O=C(Nc1scc(C2CCc3ccccc3CC2)c1C(=O)O)c1ccccc1 [#122]	744	
O=C(Nc1scc(C2CCc3ccccc3C2)c1C(=O)O)c1ccc(NCC2CCOCC2)c(O)c1 (stereo not drawn) [#134]	24	
O=C(Nc1scc(C2CCc3ccccc3C2)c1C(=O)O)c1ccc(OC(F)(F)F)cc1 (stereo not drawn) [#153]	0.4	
O=C(Nc1scc(C2CCc3ccccc3C2)c1C(=O)O)c1ccc(F)cc1 (stereo not drawn) [#172]		IC50 (read-out: IC50): 617 nM
COc1cc(C(=O)Nc2scc(C3CCc4ccccc4C3)c2C(=O)O)ccc1F (stereo not drawn) [#164]	8	
O=C(Nc1scc(C2CCCc3ccccc32)c1C(=O)O)c1ccc(F)cc1 (stereo not drawn) [#126]	237	
O=C(Nc1scc(C2CCc3ccccc3C2)c1C(=O)O)c1ccc2c(c1)CCO2 (stereo not drawn) [#177]	35	
O=C(Nc1scc(C2CCc3ccc(F)cc3C2)c1C(=O)O)c1ccccc1 (stereo not drawn) [#189]	178	
C[C@@H]1COCCN1c1ccc(C(=O)Nc2scc(C3CCc4ccccc4C3)c2C(=O)O)cc1 (stereo partly drawn) [#145]	32	
O=C(Nc1sc(Cl)c(C2Cc3ccccc3C2)c1C(=O)O)c1ccccc1 [#8]	187	
O=C(Nc1scc(C2CCc3ccccc32)c1C(=O)O)c1ccc(NC2CCOCC2)cc1 (stereo not drawn) [#55]	33.8	
O=C(Nc1scc(C2CCc3ccccc3C2)c1C(=O)O)c1ccccc1 (stereo not drawn) [#156]		IC50 (read-out: IC50): 185 nM
O=C(Nc1scc(C2CCc3ccccc3C2)c1C(=O)O)c1ccccc1N1CCOCC1 (stereo not drawn) [#129]	460	
O=C(Nc1sc(C2CC2)c(C2Cc3ccccc3C2)c1C(=O)O)c1ccccc1 [#51]	52	
N#Cc1ccc(C(=O)Nc2scc(C3CCc4ccccc4C3)c2C(=O)O)cc1 (stereo not drawn) [Compound #183, 2-[(4-Cyanobenzoyl)amino]-4-tetralin-2-yl-thiophene-3-carboxylic acid]		IC50 [1]: 462 nM
O=C(Nc1scc(C2CCc3ccccc3C2)c1C(=O)O)c1ccc(OC2CCC2)cc1 (stereo not drawn) [#178]	122	
O=C(Nc1scc(C2CCc3ccccc3C2)c1C(=O)O)c1ccc(NCCCCO)cc1 (stereo not drawn) [#133]	50	
O=C(Nc1scc(C2CCc3ccccc3C2)c1C(=O)O)c1ccc(OC(F)F)cc1 (stereo not drawn) [#175]		IC50 (read-out: IC50): 14 nM
O=C(Nc1scc(C2CCc3ccccc3C2)c1C(=O)O)c1ccc2c(c1)OCCO2 (stereo not drawn) [#176]	76	
COCCOc1ccc(C(=O)Nc2scc(C3CCc4ccccc4C3)c2C(=O)O)cc1 (stereo not drawn) [#101]	44.6	
O=C(Nc1scc(C2CCc3ccccc3C2)c1C(=O)O)c1ccc(N2C[C@H]3C[C@@H]2CO3)cc1 (stereo partly drawn) [#141]	2.7	
O=C(Nc1scc(C2CCc3ccccc3C2)c1C(=O)O)c1ccc(N2CCOCC2)cc1 (stereo not drawn) [#68]	52	
O=C(O)c1c(C2CCc3ccccc3C2)csc1NC(=O)C12CC(F)(C1)C2 (stereo not drawn) [#193]	315	

SMILES	IC50 [2] [nM]	other results
CC1(C)Cc2cc(C(=O)Nc3scc(C4CCc5ccccc5C4)c3C(=O)O)ccc2O1 (stereo not drawn) [#179]	29	
O=C(O)c1c(C2CCc3ccccc3C2)csc1NC(=O)C12CC(C1)C2 (stereo not drawn) [#192]	347	
O=C(Nc1scc(C2CCc3ccccc3C2)c1C(=O)O)c1ccc(N2C3COCC2C3)cc1 (stereo not drawn) [#150]	1	
O=C(Nc1scc(C2CCc3ccccc3C2)c1C(=O)O)c1cccc(F)c1 (stereo not drawn) [#169]	162	
O=C(Nc1scc(C2CCc3ccccc3C2)c1C(=O)O)c1ccc(NC2CCCOC2)cc1 (stereo not drawn) [#67]	2	
O=C(Nc1scc(C2CCc3ccccc3C2)c1C(=O)O)c1ccc(NCC2CCCCC2)cc1 (stereo not drawn) [#128]	0.8	
COC1CN(c2ccc(C(=O)Nc3scc(C4CCc5ccccc54)c3C(=O)O)cc2)C1 (stereo not drawn) [#58]	100	
O=C(Nc1scc(C2Cc3ccccc3C2)c1C(=O)O)c1ccccc1 [#7]	144	
O=C(Nc1scc(C2CCc3cc(F)ccc3C2)c1C(=O)O)c1ccccc1 (stereo not drawn) [#191]	46	
O=C(Nc1scc(C2CCc3ccccc3C2)c1C(=O)O)c1ccccc1O (stereo not drawn) [#160]	147	
O=C(Nc1scc(C2CCc3ccccc3C2)c1C(=O)O)c1cnc(N2CCOCC2)nc1 (stereo not drawn) [#89]	240	
O=C(Nc1scc(C2CCc3ccccc3C2)c1C(=O)O)c1ccc(C(F)(F)F)cc1 (stereo not drawn) [#158]	7	
O=C(Nc1scc(C2CCc3ccccc3C2)c1C(=O)O)c1ccc(NC(CO)C2CCOCC2)cc1 (stereo not drawn) [#131]	110	
O=C(Nc1scc(C2CCc3ccccc3C2)c1C(=O)O)c1ccc(OC(F)F)cc1 (stereo not drawn) [#174]		IC50 (read-out: IC50): 0.3 nM
COC1CN(c2cccc(C(=O)Nc3scc(C4CCc5ccccc5C4)c3C(=O)O)c2)C1 (stereo not drawn) [#93]	8	
O=C(Nc1scc(C2CCc3ccccc3C2)c1C(=O)O)c1ccc(N2CCCS2(=O)=O)cc1 (stereo not drawn) [#184]		IC50 [1]: 32 nM
O=C(Nc1scc(C2CCc3ccccc3C2)c1C(=O)O)c1cccc(OC(F)F)c1 (stereo not drawn) [#170]	18	
O=C(Nc1scc(C2CCc3ccccc3C2)c1C(=O)O)c1ccccc1CN1CCOCC1 (stereo not drawn) [#130]	560	
O=C(Nc1scc(C2CCc3ccccc3C2)c1C(=O)O)c1ccc(Cl)cc1 (stereo not drawn) [#161]	16	
COc1ccc(C(=O)Nc2scc(C3CCc4ccccc4C3)c2C(=O)O)cc1OC (stereo not drawn) [#155]	3	
O=C(Nc1sc(Cl)c(C2CCc3ccccc32)c1C(=O)O)c1ccccc1 (stereo not drawn) [#49]	130	
O=C(Nc1scc(C2CCc3ccccc3C2)c1C(=O)O)c1ccc(NCC2CCS(=O)(=O)CC2)cc1 (stereo not drawn) [#138]	22	
O=C(Nc1scc(C2CCc3ccccc3C2)c1C(=O)O)c1cccc(N2CCOCC2)c1 (stereo not drawn) [#70]	7.5	
COC1CN(c2ccc(C(=O)Nc3scc(C4CCc5ccccc5C4)c3C(=O)O)cc2)C1 (stereo not drawn) [#53]	4	
